Experimental data published in ChEMBL document CHEMBL3751688, “Synthesis, in vitro antimycobacterial evaluation and docking studies of some new 5,6,7,8-tetrahydropyrido[4',3':4,5]thieno[2,3-d]pyrimidin-4(3H)-one schiff bases” (Bioorg Med Chem Lett, 2016).
Values after ≈ are worked out from the molar mass of the structure shown.

Key:
Staphylococcus aureus = assay: Antibacterial activity against Staphylococcus aureus MTCC 96 after 24 hrs by broth microdilution technique; format: functional; conditions: MTCC 96, 24 h
Bacillus subtilis = assay: Antibacterial activity against Bacillus subtilis MTCC 441 after 24 hrs by broth microdilution technique; format: functional; conditions: MTCC 441, 24 h
Escherichia coli = assay: Antibacterial activity against Escherichia coli MTCC 443 after 24 hrs by broth microdilution technique; format: functional; conditions: MTCC 443, 24 h
Klebsiella pneumoniae = assay: Antibacterial activity against Klebsiella pneumoniae MTCC 109 after 24 hrs by broth microdilution technique; format: functional; conditions: MTCC 109, 24 h
[1] = system: Mycobacterium tuberculosis; assay: Antimycobacterial activity against Mycobacterium tuberculosis H37Rv after 14 days by broth microdilution method; format: functional; conditions: 336 h
[2] = system: Mycobacterium tuberculosis; assay: Antimycobacterial activity against Mycobacterium tuberculosis H37Rv after 21 days by broth microdilution method; format: functional; conditions: 504 h
[3] = system: Mycobacterium tuberculosis; assay: Antimycobacterial activity against Mycobacterium tuberculosis H37Rv at 113 uM after 3 days by luciferase reporter phage assay; format: functional; conditions: 72 h
[4] = system: Mycobacterium tuberculosis; assay: Antimycobacterial activity against Mycobacterium tuberculosis H37Rv at 224 uM after 3 days by luciferase reporter phage assay; format: functional; conditions: 72 h
[5] = system: Mycobacterium tuberculosis; assay: Antimycobacterial activity against Mycobacterium tuberculosis H37Rv at 455 uM after 3 days by luciferase reporter phage assay; format: functional; conditions: 72 h
[6] = system: Mycobacterium tuberculosis; assay: Antimycobacterial activity against Mycobacterium tuberculosis H37Rv at 117 uM after 3 days by luciferase reporter phage assay; format: functional; conditions: 72 h
[7] = system: Mycobacterium tuberculosis; assay: Antimycobacterial activity against Mycobacterium tuberculosis H37Rv at 235 uM after 3 days by luciferase reporter phage assay; format: functional; conditions: 72 h
[8] = system: Mycobacterium tuberculosis; assay: Antimycobacterial activity against Mycobacterium tuberculosis H37Rv at 470 uM after 3 days by luciferase reporter phage assay; format: functional; conditions: 72 h
[9] = system: Mycobacterium tuberculosis; assay: Antimycobacterial activity against Mycobacterium tuberculosis H37Rv at 116 uM after 3 days by luciferase reporter phage assay; format: functional; conditions: 72 h
[10] = system: Mycobacterium tuberculosis; assay: Antimycobacterial activity against Mycobacterium tuberculosis H37Rv at 232 uM after 3 days by luciferase reporter phage assay; format: functional; conditions: 72 h
[11] = system: Mycobacterium tuberculosis; assay: Antimycobacterial activity against Mycobacterium tuberculosis H37Rv at 465 uM after 3 days by luciferase reporter phage assay; format: functional; conditions: 72 h
[12] = system: Mycobacterium tuberculosis; assay: Antimycobacterial activity against Mycobacterium tuberculosis H37Rv at 123 uM after 3 days by luciferase reporter phage assay; format: functional; conditions: 72 h
[13] = system: Mycobacterium tuberculosis; assay: Antimycobacterial activity against Mycobacterium tuberculosis H37Rv at 246 uM after 3 days by luciferase reporter phage assay; format: functional; conditions: 72 h
[14] = system: Mycobacterium tuberculosis; assay: Antimycobacterial activity against Mycobacterium tuberculosis H37Rv at 492 uM after 3 days by luciferase reporter phage assay; format: functional; conditions: 72 h
[15] = system: Mycobacterium tuberculosis; assay: Antibacterial activity against Mycobacterium tuberculosis; format: functional
Pantothenate synthetase = target: T1, Pantothenate synthetase (Mycobacterium tuberculosis, UniProt P9WIL5); assay: Inhibition of Mycobacterium tuberculosis pantothenate synthetase
T1 sequence (P9WIL5 whole entry): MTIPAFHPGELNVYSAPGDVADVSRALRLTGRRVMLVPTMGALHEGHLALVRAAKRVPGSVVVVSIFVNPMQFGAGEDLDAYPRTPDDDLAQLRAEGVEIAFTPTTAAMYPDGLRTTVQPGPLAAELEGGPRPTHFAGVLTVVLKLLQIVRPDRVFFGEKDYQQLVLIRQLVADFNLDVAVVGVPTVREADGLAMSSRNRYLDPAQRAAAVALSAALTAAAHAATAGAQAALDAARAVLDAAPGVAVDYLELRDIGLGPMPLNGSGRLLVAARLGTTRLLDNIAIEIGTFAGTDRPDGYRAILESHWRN

[16] = system: Mycobacterium tuberculosis; assay: Antimycobacterial activity against Mycobacterium tuberculosis H37Rv at 111 uM after 3 days by luciferase reporter phage assay; format: functional; conditions: 72 h
[17] = system: Mycobacterium tuberculosis; assay: Antimycobacterial activity against Mycobacterium tuberculosis H37Rv at 223 uM after 3 days by luciferase reporter phage assay; format: functional; conditions: 72 h
[18] = system: Mycobacterium tuberculosis; assay: Antimycobacterial activity against Mycobacterium tuberculosis H37Rv at 446 uM after 3 days by luciferase reporter phage assay; format: functional; conditions: 72 h

SMILES	MIC (Staphylococcus aureus) [µM]	MIC (Bacillus subtilis) [µM]	MIC (Escherichia coli) [µM]	MIC (Klebsiella pneumoniae) [µM]	MIC [1] [µM]	MIC [2] [µM]	further results
CN[C@@H]1[C@H](O[C@H]2[C@H](O[C@H]3[C@H](O)[C@@H](O)[C@H](N=C(N)N)[C@@H](O)[C@@H]3N=C(N)N)O[C@@H](C)[C@]2(O)C=O)O[C@@H](CO)[C@H](O)[C@H]1O [STREPTOMYCIN]	< 1	< 1	< 1	< 1	2 (≈ 1.16 µg/mL)	2 (≈ 1.16 µg/mL)	–
Cc1nc2sc3c(c2c(=O)n1/N=C/c1ccc(C#N)cc1)CCN(Cc1ccccc1)C3	34 (≈ 14.9 µg/mL)	34 (≈ 14.9 µg/mL)	15 (≈ 6.59 µg/mL)	70 (≈ 30.8 µg/mL)	20 (≈ 8.79 µg/mL)	20 (≈ 8.79 µg/mL)	inhibition at 113 µM [3]: 0%; inhibition at 224 µM [4]: 6.5%; inhibition at 455 µM [5]: 9.8%
Cc1nc2sc3c(c2c(=O)n1/N=C/c1cccs1)CCN(Cc1ccccc1)C3	297 (≈ 125 µg/mL)	297 (≈ 125 µg/mL)	297 (≈ 125 µg/mL)	297 (≈ 125 µg/mL)	–	–	–
N#Cc1ccc(/C=N/n2cnc3sc4c(c3c2=O)CCN(Cc2ccccc2)C4)cc1	35 (≈ 14.9 µg/mL)	35 (≈ 14.9 µg/mL)	16 (≈ 6.81 µg/mL)	72 (≈ 30.6 µg/mL)	9 (≈ 3.83 µg/mL)	9 (≈ 3.83 µg/mL)	inhibition at 117 µM [6]: 0%; inhibition at 235 µM [7]: 9.7%; inhibition at 470 µM [8]: 69.9%
O=c1c2c3c(sc2ncn1/N=C/c1ccco1)CN(Cc1ccccc1)CC3	158 (≈ 61.7 µg/mL)	158 (≈ 61.7 µg/mL)	158 (≈ 61.7 µg/mL)	158 (≈ 61.7 µg/mL)	–	–	–
O=c1c2c3c(sc2ncn1/N=C/c1ccccc1)CN(Cc1ccccc1)CC3	77 (≈ 30.8 µg/mL)	77 (≈ 30.8 µg/mL)	77 (≈ 30.8 µg/mL)	155 (≈ 62.1 µg/mL)	–	–	–
COc1ccc(/C=N/n2cnc3sc4c(c3c2=O)CCN(Cc2ccccc2)C4)cc1	34 (≈ 14.6 µg/mL)	34 (≈ 14.6 µg/mL)	16 (≈ 6.89 µg/mL)	72 (≈ 31 µg/mL)	20 (≈ 8.61 µg/mL)	20 (≈ 8.61 µg/mL)	inhibition at 116 µM [9]: 0%; inhibition at 232 µM [10]: 15%; inhibition at 465 µM [11]: 16.9%
Cc1nc2sc3c(c2c(=O)n1/N=C/c1ccc(O)cc1)CCN(Cc1ccccc1)C3	144 (≈ 62 µg/mL)	144 (≈ 62 µg/mL)	144 (≈ 62 µg/mL)	144 (≈ 62 µg/mL)	–	–	–
O=c1c2c3c(sc2ncn1/N=C/c1ccc(Cl)cc1)CN(Cc1ccccc1)CC3	34 (≈ 14.8 µg/mL)	34 (≈ 14.8 µg/mL)	16 (≈ 6.96 µg/mL)	71 (≈ 30.9 µg/mL)	20 (≈ 8.7 µg/mL)	20 (≈ 8.7 µg/mL)	–
O=c1c2c3c(sc2ncn1/N=C/c1cccs1)CN(Cc1ccccc1)CC3	36 (≈ 14.6 µg/mL)	150 (≈ 61 µg/mL)	150 (≈ 61 µg/mL)	150 (≈ 61 µg/mL)	22 (≈ 8.94 µg/mL)	22 (≈ 8.94 µg/mL)	inhibition at 123 µM [12]: 0%; inhibition at 246 µM [13]: 0%; inhibition at 492 µM [14]: 0%
NNC(=O)c1ccncc1 [ISONIAZID]	–	–	–	–	0.28 (≈ 0.0384 µg/mL)	0.28 (≈ 0.0384 µg/mL)	–
CC[C@@H](CO)NCCN[C@@H](CC)CO [ETHAMBUTOL]	–	–	–	–	4 (≈ 0.817 µg/mL)	4 (≈ 0.817 µg/mL)	–
O=c1c2c3c(sc2ncn1/N=C/c1ccc(O)cc1)CN(Cc1ccccc1)CC3	149 (≈ 62.1 µg/mL)	149 (≈ 62.1 µg/mL)	149 (≈ 62.1 µg/mL)	149 (≈ 62.1 µg/mL)	–	–	–
Cc1nc2sc3c(c2c(=O)n1/N=C/c1ccc(F)cc1)CCN(Cc1ccccc1)C3	71 (≈ 30.7 µg/mL)	71 (≈ 30.7 µg/mL)	71 (≈ 30.7 µg/mL)	71 (≈ 30.7 µg/mL)	–	–	–
Cc1nc2sc3c(c2c(=O)n1/N=C/c1ccco1)CCN(Cc1ccccc1)C3	309 (≈ 125 µg/mL)	309 (≈ 125 µg/mL)	309 (≈ 125 µg/mL)	153 (≈ 61.9 µg/mL)	–	–	–
Cc1nc2sc3c(c2c(=O)n1/N=C/c1ccccc1[N+](=O)[O-])CCN(Cc1ccccc1)C3	135 (≈ 62 µg/mL)	135 (≈ 62 µg/mL)	135 (≈ 62 µg/mL)	135 (≈ 62 µg/mL)	–	–	–
Cc1nc2sc3c(c2c(=O)n1/N=C/c1ccc(Cl)cc1Cl)CCN(Cc1ccccc1)C3	64 (≈ 30.9 µg/mL)	15 (≈ 7.25 µg/mL)	64 (≈ 30.9 µg/mL)	64 (≈ 30.9 µg/mL)	–	–	–
O=c1c2c3c(sc2ncn1/N=C/c1ccc(Cl)cc1Cl)CN(Cc1ccccc1)CC3	66 (≈ 31 µg/mL)	32 (≈ 15 µg/mL)	66 (≈ 31 µg/mL)	66 (≈ 31 µg/mL)	–	–	–
O=c1c2c3c(sc2ncn1/N=C/c1ccc(F)cc1)CN(Cc1ccccc1)CC3	73 (≈ 30.6 µg/mL)	73 (≈ 30.6 µg/mL)	73 (≈ 30.6 µg/mL)	147 (≈ 61.5 µg/mL)	–	–	–
COc1ccc(/C=N/n2c(C)nc3sc4c(c3c2=O)CCN(Cc2ccccc2)C4)cc1	69 (≈ 30.7 µg/mL)	33 (≈ 14.7 µg/mL)	33 (≈ 14.7 µg/mL)	69 (≈ 30.7 µg/mL)	–	–	–
Cc1nc2ccccn2c1C(=O)N/N=C/c1ccc(C(F)(F)F)cc1	–	–	–	–	–	–	MIC [15]: 9.01 µM (≈ 3.12 µg/mL)
Cc1nc2sc3c(c2c(=O)n1/N=C/c1ccccc1)CCN(Cc1ccccc1)C3	74 (≈ 30.7 µg/mL)	74 (≈ 30.7 µg/mL)	74 (≈ 30.7 µg/mL)	149 (≈ 61.8 µg/mL)	–	–	–
NC(=O)c1c(NC(=O)c2ccc([N+](=O)[O-])s2)sc2c1CCN(Cc1ccccc1)C2	–	–	–	–	–	–	IC50 (Pantothenate synthetase): 1.13 µM
COc1cc(/C=N/n2cnc3sc4c(c3c2=O)CCN(Cc2ccccc2)C4)cc(OC)c1OC	255 (≈ 125 µg/mL)	255 (≈ 125 µg/mL)	255 (≈ 125 µg/mL)	255 (≈ 125 µg/mL)	–	–	–
O=c1c2c3c(sc2ncn1/N=C/c1ccccc1[N+](=O)[O-])CN(Cc1ccccc1)CC3	139 (≈ 61.9 µg/mL)	139 (≈ 61.9 µg/mL)	139 (≈ 61.9 µg/mL)	139 (≈ 61.9 µg/mL)	–	–	–
Cc1nc2sc3c(c2c(=O)n1/N=C/c1ccc(Cl)cc1)CCN(Cc1ccccc1)C3	33 (≈ 14.8 µg/mL)	33 (≈ 14.8 µg/mL)	15 (≈ 6.73 µg/mL)	69 (≈ 31 µg/mL)	8 (≈ 3.59 µg/mL)	8 (≈ 3.59 µg/mL)	inhibition at 111 µM [16]: 29.6%; inhibition at 223 µM [17]: 40.8%; inhibition at 446 µM [18]: 99.8%
COc1cc(/C=N/n2c(C)nc3sc4c(c3c2=O)CCN(Cc2ccccc2)C4)cc(OC)c1OC	248 (≈ 125 µg/mL)	248 (≈ 125 µg/mL)	248 (≈ 125 µg/mL)	248 (≈ 125 µg/mL)	–	–	–
CO[C@H]1/C=C/O[C@@]2(C)Oc3c(C)c(O)c4c(O)c(c(/C=N/N5CCN(C)CC5)c(O)c4c3C2=O)NC(=O)/C(C)=C\C=C\[C@H](C)[C@H](O)[C@@H](C)[C@@H](O)[C@@H](C)[C@H](OC(C)=O)[C@@H]1C [RIFAMPIN]	–	–	–	–	0.09 (≈ 0.0741 µg/mL)	0.09 (≈ 0.0741 µg/mL)	–
